Measured values: patent US6451325B1, “Adjuvant formulation comprising a submicron oil droplet emulsion” (Chiron Corporation, priority 1989, dated 2002)

System: influenza HA (Parke-Davis FLUOGEN)
Parameters: species or system Goats
Conditions: in vivo

**Q.** CCCCCCCCCCCCCCCC(=O)OC[C@H](COP(=O)(O)OCCNC(=O)[C@H](C)NC(=O)CC[C@@H](NC(=O)[C@H](C)NC(=O)[C@@H](C)O[C@H]1[C@H](O)[C@@H](CO)OC(O)[C@@H]1NC(C)=O)C(N)=O)OC(=O)CCCCCCCCCCCCCCC (stereo partly drawn) [MTP-PE in PBS, N-acetylmuramyl-L-alanyl-D-isoglutaminyl-L-alanine-2-[1,2-dipalmitoyl-sn-glycero-3-(hydroxyphosphoryloxy)]ethylamide] was tested. Which “stimulation of antibody titer after one immunization” value did it give?
**A.** no stimulation of antibody titer
